Data as given in patent US20080009418A1, “Selective Inhibitors” (Alchemia LTD., priority 2004, published 2008).

Legend:
Human Melanocortin (MC4) = molecular target: T1, Human Melanocortin (MC4) (Homo sapiens, UniProt P32245); assay: Radioligand binding, human melanocortin MC4 membranes, FlashPlate, [125I]-NDP-αMSH; details: compound at 10 μM; [125I]-NDP-αMSH
T1 construct: purchased Perkin Elmer Biosignal
Procedure, shortened: (§1)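 Cloned human receptor membranes were coated onto FlashPlate wells and incubated with radioligand and compound (added from a 0.5 mM DMSO daughter plate) for 1 hour at room temperature in the dark. Scintillation counting gave percent inhibition, with DMSO defining total and reference ligand defining non-specific binding.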

[1] = molecular target: T2, Human melanin-concentrating hormone (MCH1) (Homo sapiens, UniProt Q99705); assay: Radioligand binding, human melanin-concentrating hormone MCH1 membranes, FlashPlate, [125I]-S36057; details: compound at 10 μM; [125I]-S36057
T2 construct: purchased Perkin Elmer Biosignal
Procedure, shortened: as §1

Human Melanocortin (MC3) = molecular target: T3, Human Melanocortin (MC3) (Homo sapiens, UniProt P41968); assay: Radioligand binding, human melanocortin MC3 membranes, FlashPlate, [125I]-NDP-αMSH; details: compound at 10 μM; [125I]-NDP-αMSH
T3 construct: purchased Perkin Elmer Biosignal
Procedure, shortened: as §1

[2] = molecular target: T4, Human neuropeptide Y (NPY-Y1) (Homo sapiens, UniProt P25929); assay: Radioligand binding, human neuropeptide Y NPY-Y1 membranes, FlashPlate, [125I]-PYY; details: compound at 10 μM; [125I]-PYY
T4 construct: purchased Perkin Elmer Biosignal
T4 sequence (P25929 1-384): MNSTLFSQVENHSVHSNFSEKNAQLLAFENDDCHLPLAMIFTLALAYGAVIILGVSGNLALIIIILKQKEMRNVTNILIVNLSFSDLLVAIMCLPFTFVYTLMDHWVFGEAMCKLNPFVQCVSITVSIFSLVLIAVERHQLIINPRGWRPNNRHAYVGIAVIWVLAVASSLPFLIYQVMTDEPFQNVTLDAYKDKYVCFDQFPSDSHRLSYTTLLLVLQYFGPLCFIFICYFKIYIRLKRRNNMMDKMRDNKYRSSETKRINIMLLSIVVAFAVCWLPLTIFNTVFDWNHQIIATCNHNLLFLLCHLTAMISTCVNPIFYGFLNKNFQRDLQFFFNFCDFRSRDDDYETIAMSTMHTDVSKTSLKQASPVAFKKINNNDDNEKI
Procedure, shortened: as §1

Human opioid (ORL1) = molecular target: T5, Human opioid (ORL1) (Homo sapiens, UniProt P41146); assay: Radioligand binding, human opioid ORL1 membranes, FlashPlate, [125I]-Nociceptin; details: compound at 10 μM; [125I]-Nociceptin
T5 construct: purchased Perkin Elmer Biosignal
Procedure, shortened: as §1

Mouse urotensin (mUR2) = molecular target: T6, Mouse urotensin (mUR2) (Mus musculus, UniProt Q8VIH9); assay: Radioligand binding, mouse urotensin mUR2 membranes, FlashPlate, [125I]-Urotensin II; details: compound at 10 μM; [125I]-Urotensin II
T6 construct: purchased Perkin Elmer Biosignal
T6 sequence (Q8VIH9 1-385): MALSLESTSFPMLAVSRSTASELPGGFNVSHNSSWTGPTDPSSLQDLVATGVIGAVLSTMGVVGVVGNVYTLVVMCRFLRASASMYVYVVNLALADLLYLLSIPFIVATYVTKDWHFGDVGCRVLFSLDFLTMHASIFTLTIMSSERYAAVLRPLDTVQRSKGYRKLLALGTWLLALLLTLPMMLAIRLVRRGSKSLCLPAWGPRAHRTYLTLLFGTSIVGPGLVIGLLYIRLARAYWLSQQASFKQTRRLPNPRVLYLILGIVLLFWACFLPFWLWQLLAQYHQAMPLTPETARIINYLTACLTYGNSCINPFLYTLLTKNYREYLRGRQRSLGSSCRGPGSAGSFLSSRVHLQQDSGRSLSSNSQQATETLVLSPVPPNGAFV
Procedure, shortened: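 Cloned mouse urotensin (mUR2) receptor membranes from Perkin Elmer Biosignal were immobilized in FlashPlate microplates using a proprietary coating. Each well got 19.5 μl buffer, then 0.5 μl of DMSO, reference ligand, or compound. Adding 5 μl of [125I]-Urotensin II, diluted to 5× final concentration in binding buffer, started binding. Plates were sealed with TopSeal-A and incubated 1 hour at room temperature in the dark. Wells were counted for 30 seconds each on a TopCount after a 60-second delay, and percentage inhibition was calculated.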

Human neurokinin (NK1) = molecular target: T7, Human neurokinin (NK1) (Homo sapiens, UniProt P25103); assay: Radioligand binding, human neurokinin NK1 membranes, filtration, [125I]-Substance P; details: compound at 10 μM; [125I]-Substance P
T7 construct: purchased Perkin Elmer Biosignal
Procedure, shortened: (§2)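 Membranes from cloned human receptors were incubated with compound and radioligand for 1 hour at room temperature. Bound ligand was collected on 0.3% PEI-soaked filters, washed with cold 50 mM Tris-HCl pH 7.4, and counted by scintillation. Percent inhibition was computed against DMSO totals and reference-ligand nonspecific wells.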

Human κ-Opioid (KOP) = molecular target: T8, Human κ-Opioid (KOP) (Homo sapiens, UniProt P41145); assay: Radioligand binding, human κ-opioid (KOP) membranes, filtration, [3H]-Diprenorphine; details: compound at 10 μM; [3H]-Diprenorphine
T8 construct: purchased Perkin Elmer Biosignal
Procedure, shortened: as §2

Human δ-opioid (DOP) = molecular target: T9, Human δ-opioid (DOP) (Homo sapiens, UniProt P41143); assay: Radioligand binding, human δ-opioid (DOP) membranes, FlashPlate, [3H]-Bremazocine; details: compound at 10 μM; [3H]-Bremazocine
T9 construct: purchased Perkin Elmer Biosignal
Procedure, shortened: as §1

Human μ-opioid (MOP) = molecular target: T10, Human μ-opioid (MOP) (Homo sapiens, UniProt P35372); assay: Radioligand binding, human μ-opioid (MOP) membranes, FlashPlate, [3H]-Naloxone; details: compound at 10 μM; [3H]-Naloxone
T10 construct: purchased Perkin Elmer Biosignal
Procedure, shortened: as §1

Human melanocortin (MC5) = molecular target: T11, Human melanocortin (MC5) (Homo sapiens, UniProt P33032); assay: Radioligand binding, human melanocortin MC5 membranes, FlashPlate, [125I]-NDP-αMSH; details: compound at 10 μM; [125I]-NDP-αMSH
T11 construct: purchased Perkin Elmer Biosignal
Procedure, shortened: as §1

T9 sequence (P41143 whole entry): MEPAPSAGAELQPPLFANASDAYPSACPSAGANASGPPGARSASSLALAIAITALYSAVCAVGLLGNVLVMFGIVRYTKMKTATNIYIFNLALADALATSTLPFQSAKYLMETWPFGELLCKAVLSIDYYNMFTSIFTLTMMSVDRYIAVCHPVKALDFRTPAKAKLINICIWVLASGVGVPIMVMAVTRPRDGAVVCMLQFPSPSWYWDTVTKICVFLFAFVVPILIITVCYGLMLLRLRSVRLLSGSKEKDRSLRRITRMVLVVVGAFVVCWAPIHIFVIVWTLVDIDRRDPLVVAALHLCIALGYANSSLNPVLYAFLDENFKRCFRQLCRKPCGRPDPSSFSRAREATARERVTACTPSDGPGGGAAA
T3 sequence (P41968 whole entry): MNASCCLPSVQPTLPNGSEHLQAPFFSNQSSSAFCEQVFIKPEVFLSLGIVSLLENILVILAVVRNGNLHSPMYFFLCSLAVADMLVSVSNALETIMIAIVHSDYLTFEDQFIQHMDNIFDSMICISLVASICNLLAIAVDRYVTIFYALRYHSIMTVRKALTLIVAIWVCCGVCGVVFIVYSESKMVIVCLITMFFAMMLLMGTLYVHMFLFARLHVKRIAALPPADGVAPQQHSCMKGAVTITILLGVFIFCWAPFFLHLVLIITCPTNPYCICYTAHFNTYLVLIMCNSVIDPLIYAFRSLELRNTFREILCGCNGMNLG
T8 sequence (P41145 whole entry): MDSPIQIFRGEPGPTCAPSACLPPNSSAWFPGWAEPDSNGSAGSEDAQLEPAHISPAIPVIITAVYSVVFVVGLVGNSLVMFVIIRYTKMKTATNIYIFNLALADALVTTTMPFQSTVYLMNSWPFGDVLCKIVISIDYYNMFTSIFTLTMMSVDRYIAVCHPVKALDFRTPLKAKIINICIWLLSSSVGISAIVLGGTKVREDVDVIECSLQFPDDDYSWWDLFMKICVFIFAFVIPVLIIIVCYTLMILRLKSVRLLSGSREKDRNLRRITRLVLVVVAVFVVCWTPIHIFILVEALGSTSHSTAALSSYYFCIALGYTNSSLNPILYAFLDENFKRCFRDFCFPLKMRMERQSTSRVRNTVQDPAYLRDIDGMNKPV
T7 sequence (P25103 whole entry): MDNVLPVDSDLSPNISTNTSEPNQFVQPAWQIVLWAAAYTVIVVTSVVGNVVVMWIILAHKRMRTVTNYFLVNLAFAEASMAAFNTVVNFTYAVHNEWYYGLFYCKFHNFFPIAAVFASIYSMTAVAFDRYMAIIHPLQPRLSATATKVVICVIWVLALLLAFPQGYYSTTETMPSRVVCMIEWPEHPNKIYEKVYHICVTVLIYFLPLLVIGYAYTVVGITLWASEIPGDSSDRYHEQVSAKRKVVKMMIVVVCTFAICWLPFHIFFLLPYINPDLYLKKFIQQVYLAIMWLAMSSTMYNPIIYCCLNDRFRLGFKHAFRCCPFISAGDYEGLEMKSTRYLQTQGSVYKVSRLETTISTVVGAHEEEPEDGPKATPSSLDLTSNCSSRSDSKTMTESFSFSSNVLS
T2 sequence (Q99705 whole entry): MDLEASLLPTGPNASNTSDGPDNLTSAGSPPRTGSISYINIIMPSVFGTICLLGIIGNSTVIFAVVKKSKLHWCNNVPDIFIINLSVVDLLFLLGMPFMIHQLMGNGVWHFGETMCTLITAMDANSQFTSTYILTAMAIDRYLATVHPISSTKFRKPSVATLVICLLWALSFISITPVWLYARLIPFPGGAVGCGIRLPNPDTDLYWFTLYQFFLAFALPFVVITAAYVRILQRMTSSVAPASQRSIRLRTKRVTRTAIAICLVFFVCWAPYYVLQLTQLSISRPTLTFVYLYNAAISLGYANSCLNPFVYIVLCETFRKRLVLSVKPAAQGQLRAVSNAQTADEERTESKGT
T11 sequence (P33032 whole entry): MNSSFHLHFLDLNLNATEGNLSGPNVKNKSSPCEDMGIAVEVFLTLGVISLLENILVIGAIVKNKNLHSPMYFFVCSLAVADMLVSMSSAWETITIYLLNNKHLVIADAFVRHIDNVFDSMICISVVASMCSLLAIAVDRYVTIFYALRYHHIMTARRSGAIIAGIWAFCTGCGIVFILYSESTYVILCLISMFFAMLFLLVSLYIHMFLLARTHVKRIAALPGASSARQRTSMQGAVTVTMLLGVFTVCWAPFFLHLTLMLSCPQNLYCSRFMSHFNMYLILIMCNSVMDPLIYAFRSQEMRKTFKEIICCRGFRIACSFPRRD
T5 sequence (P41146 whole entry): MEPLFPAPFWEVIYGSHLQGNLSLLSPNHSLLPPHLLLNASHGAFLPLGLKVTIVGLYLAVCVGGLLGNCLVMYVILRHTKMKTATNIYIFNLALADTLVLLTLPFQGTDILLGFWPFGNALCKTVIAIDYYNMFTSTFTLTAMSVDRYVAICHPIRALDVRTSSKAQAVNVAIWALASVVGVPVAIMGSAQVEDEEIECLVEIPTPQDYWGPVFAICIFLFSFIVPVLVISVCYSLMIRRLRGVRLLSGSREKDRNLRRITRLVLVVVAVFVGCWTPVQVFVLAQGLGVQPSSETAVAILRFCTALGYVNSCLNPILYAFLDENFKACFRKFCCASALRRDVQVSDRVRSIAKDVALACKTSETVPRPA
T1 sequence (P32245 whole entry): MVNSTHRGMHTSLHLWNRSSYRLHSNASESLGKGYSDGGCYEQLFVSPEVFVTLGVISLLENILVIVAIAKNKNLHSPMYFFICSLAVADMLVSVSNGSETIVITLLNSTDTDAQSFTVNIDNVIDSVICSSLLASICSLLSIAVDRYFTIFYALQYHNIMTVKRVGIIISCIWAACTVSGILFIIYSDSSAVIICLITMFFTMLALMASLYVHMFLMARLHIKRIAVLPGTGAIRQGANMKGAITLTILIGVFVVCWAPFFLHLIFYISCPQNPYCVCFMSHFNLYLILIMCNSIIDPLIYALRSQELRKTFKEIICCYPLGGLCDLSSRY
T10 sequence (P35372 whole entry): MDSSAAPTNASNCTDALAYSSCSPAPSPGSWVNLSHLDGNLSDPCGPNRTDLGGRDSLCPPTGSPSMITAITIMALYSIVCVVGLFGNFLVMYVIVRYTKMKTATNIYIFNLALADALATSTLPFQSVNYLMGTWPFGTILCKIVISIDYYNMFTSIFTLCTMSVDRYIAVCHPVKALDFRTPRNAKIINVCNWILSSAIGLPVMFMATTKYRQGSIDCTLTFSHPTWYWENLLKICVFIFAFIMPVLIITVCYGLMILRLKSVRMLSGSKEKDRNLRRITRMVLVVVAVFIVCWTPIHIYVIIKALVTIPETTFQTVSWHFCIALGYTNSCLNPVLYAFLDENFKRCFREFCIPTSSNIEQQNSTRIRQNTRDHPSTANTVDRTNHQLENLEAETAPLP

NCC1CCC(C(=O)NC2O[C@H](CO)[C@@H](O)[C@H](OCc3ccc(Cl)cc3)[C@H]2NC(=O)c2ccccc2)CC1 (stereo partly shown) [compound 361]
A4: inhibition of radioligand binding, human melanocortin (MC4) (Human Melanocortin (MC4)): + (“+” indicates greater than 50% inhibition at 10 μM) | A6: inhibition of radioligand binding, human melanin-concentrating hormone (MCH1) [1]: − (“−” indicates less than 50% inhibition at 10 μM) | A3: inhibition of radioligand binding, human melanocortin (MC3) (Human Melanocortin (MC3)): − (“−” indicates less than 50% inhibition at 10 μM) | A9: inhibition of radioligand binding, human neuropeptide Y (NPY-Y1) [2]: − (“−” indicates less than 50% inhibition at 10 μM) | A10: inhibition of radioligand binding, human opioid (ORL1) (Human opioid (ORL1)): − (“−” indicates less than 50% inhibition at 10 μM) | A11: inhibition of radioligand binding, mouse urotensin (mUR2) (Mouse urotensin (mUR2)): − (“−” indicates less than 50% inhibition at 10 μM) | A8: inhibition of radioligand binding, human neurokinin (NK1) (Human neurokinin (NK1)): − (“−” indicates less than 50% inhibition at 10 μM) | A2: inhibition of radioligand binding, human κ-opioid (KOP) (Human κ-Opioid (KOP)): − (“−” indicates less than 50% inhibition at 10 μM) | A1: inhibition of radioligand binding, human δ-opioid (DOP) (Human δ-opioid (DOP)): − (“−” indicates less than 50% inhibition at 10 μM) | A7: inhibition of radioligand binding, human μ-opioid (MOP) (Human μ-opioid (MOP)): − (“−” indicates less than 50% inhibition at 10 μM) | A5: inhibition of radioligand binding, human melanocortin (MC5) (Human melanocortin (MC5)): − (“−” indicates less than 50% inhibition at 10 μM)

NCCC(=O)NC1C(OCc2ccc(Cl)cc2)OC(COCc2ccc(Cl)cc2)C(O)C1OCc1ccc(Cl)cc1 (single isomer, unassigned) [compound 476]
A4: inhibition of radioligand binding, human melanocortin (MC4) (Human Melanocortin (MC4)): + (“+” indicates greater than 50% inhibition at 10 μM) | A6: inhibition of radioligand binding, human melanin-concentrating hormone (MCH1) [1]: + (“+” indicates greater than 50% inhibition at 10 μM) | A3: inhibition of radioligand binding, human melanocortin (MC3) (Human Melanocortin (MC3)): + (“+” indicates greater than 50% inhibition at 10 μM) | A9: inhibition of radioligand binding, human neuropeptide Y (NPY-Y1) [2]: − (“−” indicates less than 50% inhibition at 10 μM) | A10: inhibition of radioligand binding, human opioid (ORL1) (Human opioid (ORL1)): + (“+” indicates greater than 50% inhibition at 10 μM) | A11: inhibition of radioligand binding, mouse urotensin (mUR2) (Mouse urotensin (mUR2)): − (“−” indicates less than 50% inhibition at 10 μM) | A8: inhibition of radioligand binding, human neurokinin (NK1) (Human neurokinin (NK1)): + (“+” indicates greater than 50% inhibition at 10 μM) | A2: inhibition of radioligand binding, human κ-opioid (KOP) (Human κ-Opioid (KOP)): − (“−” indicates less than 50% inhibition at 10 μM) | A1: inhibition of radioligand binding, human δ-opioid (DOP) (Human δ-opioid (DOP)): − (“−” indicates less than 50% inhibition at 10 μM) | A7: inhibition of radioligand binding, human μ-opioid (MOP) (Human μ-opioid (MOP)): + (“+” indicates greater than 50% inhibition at 10 μM) | A5: inhibition of radioligand binding, human melanocortin (MC5) (Human melanocortin (MC5)): + (“+” indicates greater than 50% inhibition at 10 μM)
